Measured values taken from US11571484B2, “Compositions that target tumor-associated macrophages and methods of use therefor” (Sanford Burnham Prebys Medical Discovery Institute, priority 2017, dated 2023).

Assays:
[1] = system: peritoneal macrophages; test: In vivo phage display on peritoneal cells of 4T1 tumor-bearing versus normal mice; design: species or system mouse; conditions: phage-displayed peptide
Experimental: A, Naive phage library was injected intraperitoneally in 4T1 tumor-bearing mice and age-matched normal mice, and allowed to circulate for two h. Peritoneal cells were collected, the accompanying phages were rescued and the peptide-encoding segment of phage DNA was sequenced. […] Peritoneal cells were extracted from the mice, seeded on coverslips, allowed to attach for 2 h, fixed, permeabilized, and stained for CD206. CD206+ cells were counted from 6 different confocal images, 2 from each mouse. C, Highly repeated sequences obtained from the first round of the biopanning experiment shown schematically in panel A. D, Frequency of phage clones encoding UNO or a randomly picked peptide (CIGVSSDC) divided by the total number of repeated sequences) in the 4T1 tumor-bearing and normal mice.
Ten days later, the 4T1 mouse and a Balb/c female mouse of the matched age, were injected with 500 μL of a 7×10^10 pfu/mL of purified CX7C long-circulating library that bears a mutation on the p17 protein of tail fiber^45. After 2 h the mice were anesthetized and peritoneal cells were collected, washed by centrifugation, and lysed by hand-held homogenizer in 2 mL of LB+NP40 1%. The phage was amplified in E. coli strain BLT5403 for high throughput sequencing of peptide encoding segment of the phage genomic DNA using Ion Torrent semiconductor sequencing system.
In vivo phage display was carried out on orthotopic breast cancer bearing mice as outlined in FIG. 1A. Compared to peritoneal cells of healthy mice, […] macrophages were ˜5-fold overrepresented in Balb/c mice bearing metastatic syngeneic 4T1 breast tumors (FIG. 1B). We hypothesized that a peptide that binds to peritoneal macrophages in tumor-bearing mice may also target M2-like TAMs. Mice with 4T1 tumors were injected intraperitoneally (i.p.) with a phage library expressing 9-amino acid cyclic CX7C peptides. After 2 h, peritoneal cells were collected, bound phages were rescued by amplification, and the resulting phage pool was subjected to high-throughput sequencing of the peptide-encoding segment of the phage genome. […]

[2] = system: RAW 267.4 cells; test: Phage biopanning on cultured CD206- RAW 267.4 macrophages; assay type: cell-based, mouse; conditions: phage-displayed peptide, 4 °C overnight
Experimental: A, Cultured RAW 267.4 mouse macrophages were fixed with PFA and stained with rat anti-CD206 (red) and counterstained with DAPI (blue). B, Phage display on RAW 267.4 cells. Cells were lifted using a cell scraper, centrifuged, brought to 4° C. and incubated with 0.5 mL of the same phage library used for the in vivo experiments (0.5 mL of 7×10^10 pfu/mL)+0.5 mL of DMEM, at 4° C. overnight. Cells were then washed four times resuspending in PBS and placing in a new tube every time, lastly the cells were suspended in LB+NP40%, lysed and phage insert were sequenced. The UNO clone is […] of the list (red). Only the top 50 hits from the screen are shown. Scale bar: 50 μm.
Mouse macrophage cell line Raw 267.4 (ATCC, VA, USA) was cultured in DMEM with FBS and antibiotics. Cells from a 25 cm^2 flask (˜3×10^6 cells) were lifted using a cell scraper, centrifuged, brought to 4. C and incubated with 0.5 mL of the same purified library used for the in vivo experiments (0.5 mL of 7×10^10 pfu/mL)+0.5 mL of DMEM, at 4-C overnight. Cells were then washed four times by re-suspending in PBS and placing them in a new tube every time, and finally suspended in LB+1% NP40, lysed and subjected to high throughput sequencing.

“CSPGAKVRC [peptide codenamed UNO, identified by in vivo phage display]” was tested, and the “overrepresentation of phage in peritoneal cells from 4T1 tumor-bearing mice versus healthy mice” value ([1]; library injected i.p., 2 h) was ~10 fold, the “representation among sequenced phage clones” value ([1]; peritoneal cells of 4T1 tumor mice) was “most highly represented non-truncated peptide” and the “position of the phage clone in the list of hits” value [2] was 2140.
